Common to all, as to format: functional
Assay [1] has as its system Staphylococcus aureus. Put plainly: Antibacterial activity against Staphylococcus aureus ATCC 6538P by microbroth dilution method. In general terms: Broth dilution looks for growth in wells or tubes with falling amounts of substance.
Assay [2] has as its system Staphylococcus aureus. Nature of the assay: Antibacterial activity against Staphylococcus aureus ATCC 33591 by microbroth dilution method.
Assay [3] deals with Staphylococcus aureus. Put plainly: Antibacterial activity against Staphylococcus aureus ATCC 29213 by microbroth dilution method.
Assay [4] concerns Staphylococcus aureus. Put plainly: Antibacterial activity against methicillin-resistant Staphylococcus aureus 1201984 by microbroth dilution method.
Assay [5] relates to Staphylococcus aureus. Nature of the assay: Antibacterial activity against linezolid-resistant Staphylococcus aureus by microbroth dilution method.
Assay [6] deals with Enterococcus faecalis. Nature of the assay: Antibacterial activity against Enterococcus faecalis ATCC 29212 by microbroth dilution method.
Assay [7] concerns Enterococcus faecium. Nature of the assay: Antibacterial activity against Enterococcus faecium 19434 by microbroth dilution method.
Assay [8] relates to Streptococcus pneumoniae. Nature of the assay: Antibacterial activity against Streptococcus pneumoniae 55143 by microbroth dilution method.
Assay [9] has as its system Streptococcus pyogenes. Nature of the assay: Antibacterial activity against Streptococcus pyogenes ATCC 19615 by microbroth dilution method.
Assay [10] relates to Staphylococcus epidermidis. Nature of the assay: Antibacterial activity against Staphylococcus epidermidis ATCC 14990 by microbroth dilution method.
Assay [11] has as its system Haemophilus influenzae. Nature of the assay: Antibacterial activity against Haemophilus influenzae ATCC 49247 by microbroth dilution method.

Values after ≈ are worked out from the molar mass of the structure shown.

This note sets out measurements from ChEMBL document CHEMBL4130562, “Design, Synthesis, and Antibacterial Evaluation of Oxazolidinones with Fused Heterocyclic C-Ring Substructure” (ACS Med Chem Lett, 2017).

As for `O=C1COc2ccc(-c3ccc(N4C[C@H](CO)OC4=O)cc3F)nc2N1`, the MIC came to 0.125 µg/mL (≈ 0.348 µM) in assay [1]; 0.125 µg/mL (≈ 0.348 µM) in assay [2]; 0.5 µg/mL (≈ 1.39 µM) in assay [3]; 0.25 µg/mL (≈ 0.696 µM) in assay [4]; 4 µg/mL (≈ 11.1 µM) in assay [5]; 0.25 µg/mL (≈ 0.696 µM) in assay [6]. Besides, the MIC in assay [7] was 0.25 µg/mL (≈ 0.696 µM); in [8], 0.25 µg/mL (≈ 0.696 µM); in assay [9] it was 0.25 µg/mL (≈ 0.696 µM); in assay [10] it was below 0.06 µg/mL; in [11], 1 µg/mL (≈ 2.78 µM).
`O=C1COc2ccc(-c3ccc(N4C[C@H](CNC(=O)C5CC5)OC4=O)cc3F)cc2N1`: the MIC in [1] is 0.25 µg/mL (≈ 0.588 µM); in assay [2], 1 µg/mL (≈ 2.35 µM); in [3], 1 µg/mL (≈ 2.35 µM); in assay [4], 1 µg/mL (≈ 2.35 µM); in assay [5] it was 4 µg/mL (≈ 9.4 µM); in [6], 0.25 µg/mL (≈ 0.588 µM). The MIC in [7] came to 0.125 µg/mL (≈ 0.294 µM); in assay [8], 0.5 µg/mL (≈ 1.18 µM); in [9], 0.5 µg/mL (≈ 1.18 µM); in assay [10], 0.25 µg/mL (≈ 0.588 µM); in [11] it was 1 µg/mL (≈ 2.35 µM).
In the case of `O=C1CCOc2ccc(-c3ccc(N4C[C@H](CO)OC4=O)cc3F)cc2N1`, the MIC in [1] turned out to be 0.06 µg/mL (≈ 0.161 µM); in assay [2] it was 0.5 µg/mL (≈ 1.34 µM); in assay [3] it was 0.125 µg/mL (≈ 0.336 µM); in [4], 0.125 µg/mL (≈ 0.336 µM); in assay [5], 2 µg/mL (≈ 5.37 µM); in [6], 0.25 µg/mL (≈ 0.671 µM). The MIC was determined as 0.125 µg/mL (≈ 0.336 µM) in assay [7]; 0.25 µg/mL (≈ 0.671 µM) in assay [8]; 0.25 µg/mL (≈ 0.671 µM) in [9]; 0.06 µg/mL (≈ 0.161 µM) in [10]; 0.5 µg/mL (≈ 1.34 µM) in [11].
`O=C1COc2cc(-c3ccc(N4C[C@H](CO)OC4=O)cc3F)ccc2N1`: the MIC is 0.5 µg/mL (≈ 1.4 µM) in [1]; 0.5 µg/mL (≈ 1.4 µM) in assay [2]; 0.5 µg/mL (≈ 1.4 µM) in assay [3]; 0.5 µg/mL (≈ 1.4 µM) in assay [4]; 16 µg/mL (≈ 44.7 µM) in assay [5]; 1 µg/mL (≈ 2.79 µM) in assay [6]. The MIC was 1 µg/mL (≈ 2.79 µM) in assay [7]; 2 µg/mL (≈ 5.58 µM) in assay [8]; 2 µg/mL (≈ 5.58 µM) in assay [9]; 0.5 µg/mL (≈ 1.4 µM) in [10]; 0.25 µg/mL (≈ 0.698 µM) in [11].
With `O=C1O[C@@H](CO)CN1c1ccc(-c2cnc3ccc(=O)[nH]c3c2)c(F)c1`, the MIC was 0.25 µg/mL (≈ 0.704 µM) in [1]; 0.25 µg/mL (≈ 0.704 µM) in assay [2]; 0.5 µg/mL (≈ 1.41 µM) in [3]; 16 µg/mL (≈ 45 µM) in assay [4]; 8 µg/mL (≈ 22.5 µM) in assay [5]; 0.5 µg/mL (≈ 1.41 µM) in [6]. The MIC in assay [7] turned out to be 0.125 µg/mL (≈ 0.352 µM); in assay [8], 0.25 µg/mL (≈ 0.704 µM); in [9], 0.25 µg/mL (≈ 0.704 µM); in assay [10], 0.25 µg/mL (≈ 0.704 µM); in [11] it was 0.5 µg/mL (≈ 1.41 µM).
`O=C1COc2ccc(-c3ccc(N4C[C@H](CNC(=O)C(F)F)OC4=O)cc3F)cc2N1`: the MIC in assay [1] is 0.125 µg/mL (≈ 0.287 µM); in assay [2], 0.5 µg/mL (≈ 1.15 µM); in [3], 0.5 µg/mL (≈ 1.15 µM); in assay [4], 0.5 µg/mL (≈ 1.15 µM); in assay [5], 4 µg/mL (≈ 9.19 µM); in [6] it was 0.06 µg/mL (≈ 0.138 µM). Besides, the MIC in assay [7] came to 0.06 µg/mL (≈ 0.138 µM); in assay [8], 0.25 µg/mL (≈ 0.574 µM); in [9], 0.25 µg/mL (≈ 0.574 µM); in [10], 0.125 µg/mL (≈ 0.287 µM); in assay [11], 0.5 µg/mL (≈ 1.15 µM).
For `CC1(C)Oc2ccc(-c3ccc(N4C[C@H](CO)OC4=O)cc3F)cc2NC1=O`, the MIC in assay [1] was 0.125 µg/mL (≈ 0.324 µM); in [2], 1 µg/mL (≈ 2.59 µM); in assay [3], 0.25 µg/mL (≈ 0.647 µM); in [4], 0.25 µg/mL (≈ 0.647 µM); in assay [5], 16 µg/mL (≈ 41.4 µM); in assay [6], 0.5 µg/mL (≈ 1.29 µM). The MIC was 0.25 µg/mL (≈ 0.647 µM) in assay [7]; 0.25 µg/mL (≈ 0.647 µM) in [8]; 0.25 µg/mL (≈ 0.647 µM) in assay [9]; below 0.06 µg/mL in [10]; 0.125 µg/mL (≈ 0.324 µM) in assay [11].
As for `O=C1Cc2ccc(-c3ccc(N4C[C@H](CO)OC4=O)cc3F)cc2N1`, the MIC worked out at 0.25 µg/mL (≈ 0.73 µM) in assay [1]; 32 µg/mL (≈ 93.5 µM) in assay [2]; 1 µg/mL (≈ 2.92 µM) in [3]; 32 µg/mL (≈ 93.5 µM) in [4]; 4 µg/mL (≈ 11.7 µM) in [5]; 0.25 µg/mL (≈ 0.73 µM) in [6]. The MIC in assay [7] was 0.25 µg/mL (≈ 0.73 µM); in [8], 0.125 µg/mL (≈ 0.365 µM); in [9] it was 0.125 µg/mL (≈ 0.365 µM); in assay [10] it was below 0.06 µg/mL; in assay [11] it was 2 µg/mL (≈ 5.84 µM).
In the case of `CC(=O)NC[C@H]1CN(c2ccc(N3CCOCC3)c(F)c2)C(=O)O1` [LINEZOLID], the MIC in [1] was determined as 1 µg/mL (≈ 2.96 µM); in assay [2] it was 1 µg/mL (≈ 2.96 µM); in assay [4] it was 1 µg/mL (≈ 2.96 µM); in assay [5], 16 µg/mL (≈ 47.4 µM); in [7], 2 µg/mL (≈ 5.93 µM); in [9] it was 0.5 µg/mL (≈ 1.48 µM). The same compound displayed an MIC in assay [11] of 4 µg/mL (≈ 11.9 µM).
Consider `CN[C@H](CC(C)C)C(=O)N[C@H]1C(=O)N[C@@H](CC(N)=O)C(=O)N[C@H]2C(=O)N[C@H]3C(=O)N[C@H](C(=O)N[C@H](C(=O)O)c4cc(O)cc(O)c4-c4cc3ccc4O)[C@H](O)c3ccc(c(Cl)c3)Oc3cc2cc(c3O[C@@H]2O[C@H](CO)[C@@H](O)[C@H](O)[C@H]2O[C@H]2C[C@](C)(N)[C@H](O)[C@H](C)O2)Oc2ccc(cc2Cl)[C@H]1O` [VANCOMYCIN], for which the MIC in assay [6], in [8] and in assay [9] was 2 µg/mL (≈ 1.38 µM) each time.
